In patent EP4806435A1, “DIHYDROCHROMENE-DERIVATIVE-CONTAINING THERAPEUTIC AGENT FOR CANCER” (Sumitomo Pharma Co., Ltd., priority 2023, dated 2025):

Tested on: BT142 cells
Assay: Cytotoxicity assay, LDL-supplemented sphere culture, low-grade glioma line (ATP)
Assay type: cell-based
Details: 1 µM; 7 days; LDL 5 µg/mL; BT142 (IDH1 mutant-type, R132H/-)
Method: U-87 cells (IDH1 wild-type) and BT142 cells derived from low-grade glioma (IDH1 mutant-type, R132H/-) were cultured for 7 days in LDL-supplemented sphere medium in the presence or absence of Compound 1 (1 µM). The LDL concentration was 5 µg/mL. After incubation, intracellular ATP levels were quantified as an indicator of cell viability, and cytotoxicity was compared between conditions.

With `CC1(C)Oc2cc(Cl)ccc2[C@@H]2OCC3(CCN(CCn4ccnc4)CC3)C[C@H]21` [Compound 1, (4'aR,10'bR)-8'-chloro-1-[2-(1H-imidazol-1-yl)ethyl]-5',5'-dimethyl-4'a,10'b-dihydro-2'H,4'H,5'H-spiro[piperidine-4,3'-pyrano[3,2-c][1]benzopyran] diphosphate] the cytotoxicity was “marked cytotoxicity”.
